Measured values taken from US4310523A, “Combined antiestrogens and antigonadotropically effective antiandrogens for the prophylaxis and therapy of hyperplasia of the prostate” (priority 1978, dated 1982).

Legend:
[1] = system: vaginal epithelium (hornification); assay: Vaginal swab test of the castrated rat; assay type: in vivo; settings: subcutaneous, 1 mg
Method: One example of compounds having possible antiestrogenic effects which are not included within the scope of this invention are those disclosed in U.S. Pat. No. 4,055,641 to Benson et al which are primarily anabolic androgens. For example, the compound preferred by Benson et al, 3,17-dioxoandrost-4-ene-19-al (Column 3, lines 67-68) was tested in the vaginal swab test of the castrated rat after subcutaneous application in a dosage of 1 mg. […] In addition, the compounds of Benson et al were tested on intact (not castrated) male animals or probands. These estrogenous substances acted on the prostate by removal of androgen, not by displacing estrogen as for the antiestrogens used in this invention. The difference between the antiestrogens acting through an antagonism to estrogen receptors, i.e., those used in this invention, and those which are primariy androgenic or gestogenic in activity with some simultaneous antiestrogenic effect is also discussed in Nishino, supra.

[2] = system: Estradiol-stimulated Uterus Weight of Infantile Mice; assay: Antiestrogenic effect on the estradiol-stimulated uterus weight of infantile mice (uterus growth test); assay type: in vivo; settings: for Effect on uterus weight of the estradiol-stimulated uterus of infantile mice, in words: s.c., 0.3-300 μg/animal/day
Method: Daily for 3 days 0.03 μg of estradiol and measured dosages of the antiestrogen to be tested are simultaneously applied to castrated or infantile mice subcutaneously. The animals are killed on the fourth day, and the uteri are removed and weighed without contents (See Table 1). The same test is carried out on castrated or infantile rats using 0.1 μg of estradiol.
Antiestrogenic Effect of Ru-16117 and Tamoxifen on the Estradiol-stimulate
d Uterus Weight of Infantile Mice
(Mode of Administration: Subcutaneous - Number of Animals per Group:
Ru-16117, Tamoxifen and Estradiol are dissolved in a medium consisting of
benzylbenzoate/castor oil (1:10)

prostate hyperplasia [3] = assay: Prostate hyperplasia in younger dogs treated with estrogen or estrogen/androgen mixture, additional treatment with anti-androgen; assay type: in vivo, dog; settings: additional cyproterone acetate
Source text: Also in the dog, there is a proliferation primarily of the fibromuscular portion of the prostate. It is also possible to cause the aspects of the disease in younger dogs by treatment with an estrogen or an estrogen/androgen mixture.

prostate hyperplasia [4] = settings: cited from earlier work
hyperplastic prostate = settings: one-year study, patients; cited from earlier work
[5] = 3 μg/animal/day s.c. + 0.03 μg estradiol/animal/day, 3 days
[6] = 3 μg/animal/day s.c. + 0.03 μg estradiol/animal/day, 3 days, 8 animals per group
[7] = 30 μg/animal/day s.c. + 0.03 μg estradiol/animal/day, 3 days
[8] = 30 μg/animal/day s.c. + 0.03 μg estradiol/animal/day, 3 days, 8 animals per group

C[C@]12CC[C@H]3[C@@H](CCC4=CC(=O)CC[C@@]43C=O)[C@@H]1CCC2=O [3,17-dioxoandrost-4-ene-19-al]
Estrogenous effect [1]: strongly estrogenous effect | Hornification of the vaginal epithelium [1]: Hornification of the vaginal epitelium took place

C[C@]12CC[C@@H]3c4ccc(O)cc4CC[C@H]3[C@@H]1CC[C@@H]2O [Estradiol]
Uterus Weight, Average Value ± Standard Deviation ([2]; single administration of 0.03 μg estradiol once daily over 3 days, s.c. (untreated control 11.8 ± 1.3)): 63.9 ± 6.2 mg

C#C[C@]1(O)CC[C@H]2[C@@H]3CCc4cc(O)ccc4[C@H]3[C@H](OC)C[C@@]21C [Ru-16117, 11α-methoxy-17α-ethynyl-1,3,5(10)-estratriene-3,17β-diol]
% Inhibition, Decrease of Uterus Weight in Comparison to Single Estradiol Administration ([2]; 0.3 μg/animal/day s.c. + 0.03 μg estradiol/animal/day, 3 days): 8% | Uterus Weight, Average Value ± Standard Deviation ([2]; 0.3 μg/animal/day s.c. + 0.03 μg estradiol/animal/day, 3 days, 8 animals per group): 60.0 ± 2.4 mg | % Inhibition, Decrease of Uterus Weight in Comparison to Single Estradiol Administration [2, 5]: 27% | Uterus Weight, Average Value ± Standard Deviation [2, 6]: 49.8 ± 1.6 mg | % Inhibition, Decrease of Uterus Weight in Comparison to Single Estradiol Administration [2, 7]: 58% | Uterus Weight, Average Value ± Standard Deviation [2, 8]: 34.3 ± 2.3 mg | Effectiveness compared with Tamoxifen ([2]; "somewhat more effective than Tamoxifen"): somewhat more | Effect on uterus weight of the estradiol-stimulated uterus of infantile mice, in words ([2]; 3 days): pronounced dosagedependent decrease in uterus weight

CC/C(=C(\c1ccccc1)c1ccc(OCCN(C)C)cc1)c1ccccc1 [Tamoxifen, (Z)-2-[p-(1,2-diphenyl-1-butenyl)-phenoxy]-N,N-dimethylethylamine]
% Inhibition, Decrease of Uterus Weight in Comparison to Single Estradiol Administration [2, 5]: 11% | Uterus Weight, Average Value ± Standard Deviation [2, 6]: 57.5 ± 2.1 mg | % Inhibition, Decrease of Uterus Weight in Comparison to Single Estradiol Administration [2, 7]: 40% | Uterus Weight, Average Value ± Standard Deviation [2, 8]: 43.3 ± 3.1 mg | % Inhibition, Decrease of Uterus Weight in Comparison to Single Estradiol Administration ([2]; 100 μg/animal/day s.c. + 0.03 μg estradiol/animal/day, 3 days): 46% | Uterus Weight, Average Value ± Standard Deviation ([2]; 100 μg/animal/day s.c. + 0.03 μg estradiol/animal/day, 3 days, 8 animals per group): 39.7 ± 3.1 mg | % Inhibition, Decrease of Uterus Weight in Comparison to Single Estradiol Administration ([2]; 300 μg/animal/day s.c. + 0.03 μg estradiol/animal/day, 3 days): 58% | Uterus Weight, Average Value ± Standard Deviation ([2]; 300 μg/animal/day s.c. + 0.03 μg estradiol/animal/day, 3 days, 8 animals per group): 34.1 ± 4.3 mg | Effect on uterus weight of the estradiol-stimulated uterus of infantile mice, in words ([2]; 3 days): pronounced dosagedependent decrease in uterus weight

CC(=O)O[C@]1(C(C)=O)CC[C@H]2[C@@H]3C=C(Cl)C4=CC(=O)[C@@H]5C[C@@H]5[C@]4(C)[C@H]3CC[C@@]21C [cyproterone acetate, 6-chloro-17-hydroxy-1α,2α-methylenepregna-4,6-diene-3,20-dione acetate]
Effect on gland parenchyma (prostate hyperplasia [3]): total atrophy of the gland parenchyma | Effect on proliferation of the interstitium (prostate hyperplasia [3]): proliferation of the interstitium is not affected

CCCCCC(=O)O[C@]1(C(C)=O)CC[C@H]2[C@@H]3CCC4=CC(=O)CC[C@@H]4[C@H]3CC[C@@]21C [gestonorone caproate]
Maximum flow value (flow of urine per unit time) (prostate hyperplasia [4]; in vivo): improved | Reduction of the size of the adenoma (prostate hyperplasia [4]; in vivo): A marked reduction of the size of the adenoma, however, also cannot be achieved | Miction period (prostate hyperplasia [4]; prolonged prior to treatment): markedly shortened | Effect compared with phyto-preparations (prostate hyperplasia [4]; prostate hyperplasia): a better effect

CC[C@H](CC[C@@H](C)[C@H]1CC[C@H]2[C@@H]3CC=C4C[C@@H](O)CC[C@]4(C)[C@H]3CC[C@]12C)C(C)C [β-sitosterol]
Effectiveness in prostate hyperplasia (hyperplastic prostate): ineffective
